{"source": "ChEMBL document CHEMBL6120941", "about": "“Discovery of SIRT1-Activating Hydrogen Sulfide Donating Derivatives for Efficient Resistant of Myocardial Ischemic Injury” (J Med Chem, 2024)", "key": {"H9c2 [1]": {"tested_on": "H9c2", "experiment": "Antioxidant activity against CoCl2-induced cellular hypoxia injury in rat H9c2 cells assessed as increase in hypoxia-reduced SOD level at 5 to 10 uM incubated for 24 hrs", "type": "functional, cell-based", "details": "dose 5-10 µM"}, "H9c2 [2]": {"tested_on": "H9c2", "experiment": "Antioxidant activity against CoCl2-induced cellular hypoxia injury in rat H9c2 cells assessed as decrease in hypoxia-induced CK level at 5 to 10 uM incubated for 24 hrs", "type": "functional, cell-based", "details": "dose 5-10 µM"}, "[3]": {"experiment": "Toxicity in myocardial ischemia Sprague-Dawley rat model assessed as change in body weight at 10 to 30 mg/kg, IG treated for 7 days consecutively followed by ISO administration daily for 2 days consecutively", "type": "organism-based", "details": "in vivo, po, 216 h, dose 10-30 mg/kg, time 9 day"}, "H9c2 [4]": {"tested_on": "H9c2", "experiment": "Antioxidant activity against CoCl2-induced cellular hypoxia injury in rat H9c2 cells assessed as decrease in hypoxia-induced LDH release at 5 to 10 uM incubated for 24 hrs", "type": "functional, cell-based", "details": "dose 5-10 µM"}, "Rattus norvegicus [5]": {"tested_on": "Rattus norvegicus", "experiment": "Cardioprotective activity against myocardial ischemia Sprague-Dawley rat model assessed as increase in PGC1-alpha level in myocardial tissue at 10 to 30 mg/kg, IG treated for 7 days consecutively followed by ISO administration daily for 2 days consecutively by Western blot analysis", "type": "functional, organism-based", "details": "dose 10-30 mg/kg, time 9.0 day"}, "H9c2 [6]": {"tested_on": "H9c2", "experiment": "Cardioprotective activity against CoCl2-induced cellular hypoxia injury in rat H9c2 cells assessed as rate of necrosis at 10 uM incubated for 24 hrs in presence of GSSG by flow cytometry (reference value: 22.5 %)", "type": "functional"}, "H9c2 [7]": {"tested_on": "H9c2", "experiment": "Antioxidant activity against CoCl2-induced cellular hypoxia injury in rat H9c2 cells assessed as decrease in hypoxia-induced MDA level at 5 to 10 uM incubated for 24 hrs", "type": "functional, cell-based", "details": "dose 5-10 µM"}, "Rattus norvegicus [8]": {"tested_on": "Rattus norvegicus", "experiment": "Cardioprotective activity in myocardial ischemia Sprague-Dawley rat model assessed as decrease in myocardial injury administered intragastrically for 7 days consecutively followed by ISO administration daily for 2 days consecutively by H and E/Masson staining based analysis", "type": "functional, organism-based", "details": "dose 10-30 mg/kg, route ig, time 9.0 day"}, "H9c2 [9]": {"tested_on": "H9c2", "experiment": "Induction of H2S release in rat H9c2 cells incubated for 24 hrs by fluorescence based imaging analysis", "type": "functional, cell-based", "details": "dose 0.625-10 µM"}, "[10]": {"experiment": "Induction of H2S release in PBS at pH 7.4 measured upto 60 mins by methylene blue method", "type": "functional"}, "H9c2 [11]": {"tested_on": "H9c2", "experiment": "Induction of H2S release in rat H9c2 cells incubated for 24 hrs by AzMC probe based analysis", "type": "functional, cell-based", "details": "dose 1.25-10 µM"}, "Rattus norvegicus [12]": {"tested_on": "Rattus norvegicus", "experiment": "Cardioprotective activity in myocardial ischemia Sprague-Dawley rat model assessed as myocardial infarction area at 30 mg/kg, IG treated for 7 days consecutively followed by ISO administration daily for 2 days consecutively by TTC staining based analysis (reference value: 32.65 %)", "type": "functional", "details": "time 9 day"}, "H9c2 [13]": {"tested_on": "H9c2", "experiment": "Cardioprotective activity against CoCl2-induced cellular hypoxia injury in rat H9c2 cells assessed as cell viability at 5 uM incubated for 24 hrs by CCK-8 assay (reference value: 51.80 +/- 2.58 %)", "type": "functional", "details": "read-out: Activity"}, "H9c2 [14]": {"tested_on": "H9c2", "experiment": "Cardioprotective activity against CoCl2-induced cellular hypoxia injury in rat H9c2 cells assessed as reduction in necrosis at 5 to 10 uM incubated for 24 hrs by flow cytometry", "type": "functional, cell-based", "details": "dose 5-10 µM"}, "H9c2 [15]": {"tested_on": "H9c2", "experiment": "Cardioprotective activity against CoCl2-induced cellular hypoxia injury in rat H9c2 cells assessed as inhibition of ROS-induced cell damage at 5 to 10 uM incubated for 24 hrs by fluorescence based analysis", "type": "functional", "details": "dose 5-10 µM"}, "H9c2 [16]": {"tested_on": "H9c2", "experiment": "Cardioprotective activity against CoCl2-induced cellular hypoxia injury in rat H9c2 cells assessed as increase in PGC1-alpha level at 5 to 10 uM incubated for 24 hrs by Western blot analysis", "type": "functional, cell-based", "details": "dose 5-10 µM"}, "[17]": {"experiment": "Induction of H2S release in PBS at pH 7.4 at 100 uM measured upto 60 mins by methylene blue method", "type": "functional"}, "H9c2 [18]": {"tested_on": "H9c2", "experiment": "Cardioprotective activity against CoCl2-induced cellular hypoxia injury in rat H9c2 cells assessed as cell viability at 1.25 uM incubated for 24 hrs by CCK-8 assay (reference value: 51.80 +/- 2.58 %)", "type": "functional", "details": "read-out: Activity"}, "H9c2 [19]": {"tested_on": "H9c2", "experiment": "Cardioprotective activity against CoCl2-induced cellular hypoxia injury in rat H9c2 cells assessed as cell viability at 0.625 uM incubated for 24 hrs by CCK-8 assay (reference value: 51.80 +/- 2.58 %)", "type": "functional", "details": "read-out: Activity"}, "[20]": {"experiment": "Induction of H2S […] activity in presence of GSSH", "type": "functional"}, "H9c2 [21]": {"tested_on": "H9c2", "experiment": "Cardioprotective activity against CoCl2-induced cellular hypoxia injury in rat H9c2 cells assessed as improvement in nuclear shrinkage at 5 to 10 uM incubated for 24 hrs by Hoechst 33258 nuclear staining based analysis", "type": "functional, cell-based", "details": "dose 5-10 µM"}, "H9c2 [22]": {"tested_on": "H9c2", "experiment": "Antioxidant activity against CoCl2-induced cellular hypoxia injury in rat H9c2 cells assessed as increase in hypoxia-reduced GSH level at 5 to 10 uM incubated for 24 hrs", "type": "functional, cell-based", "details": "dose 5-10 µM"}, "H9c2 [23]": {"tested_on": "H9c2", "experiment": "Cardioprotective activity against CoCl2-induced cellular hypoxia injury in rat H9c2 cells assessed as cell viability at 2.5 uM incubated for 24 hrs by CCK-8 assay (reference value: 51.80 +/- 2.58 %)", "type": "functional", "details": "read-out: Activity"}, "H9c2 [24]": {"tested_on": "H9c2", "experiment": "Cardioprotective activity against CoCl2-induced cellular hypoxia injury in rat H9c2 cells assessed as rate of apoptosis at 10 uM incubated for 24 hrs in presence of GSSG by flow cytometry (reference value: 19.5 %)", "type": "functional"}, "H9c2 [25]": {"tested_on": "H9c2", "experiment": "Antioxidant activity against CoCl2-induced cellular hypoxia injury in rat H9c2 cells assessed as increase in Nrf2 level at 5 to 10 uM incubated for 24 hrs by Western blot analysis", "type": "functional, cell-based", "details": "dose 5-10 µM"}, "H9c2 [26]": {"tested_on": "H9c2", "experiment": "Cardioprotective activity against CoCl2-induced cellular hypoxia injury in rat H9c2 cells assessed as inhibition of CoCl2-induced morphological changes at 5 to 10 uM incubated for 24 hrs by fluorescence based analysis", "type": "functional, cell-based", "details": "dose 5-10 µM"}, "Rattus norvegicus [27]": {"tested_on": "Rattus norvegicus", "experiment": "Cardioprotective activity in myocardial ischemia Sprague-Dawley rat model assessed as decrease in ISO-induced ST segment at 10 to 30 mg/kg, IG treated for 7 days consecutively followed by ISO administration daily for 2 days consecutively by ECG analysis", "type": "functional, organism-based", "details": "dose 10-30 mg/kg, time 9.0 day"}, "Rattus norvegicus [28]": {"tested_on": "Rattus norvegicus", "experiment": "Cardioprotective activity in myocardial ischemia Sprague-Dawley rat model assessed as improvement in positional rearrangement at 10 to 30 mg/kg, IG treated for 7 days consecutively followed by ISO administration daily for 2 days consecutively by H and E/Masson staining based analysis", "type": "functional, organism-based", "details": "dose 10-30 mg/kg, time 9.0 day"}, "Rattus norvegicus [29]": {"tested_on": "Rattus norvegicus", "experiment": "Cardioprotective activity in myocardial ischemia Sprague-Dawley rat model assessed as improvement in tissue clearance at 10 to 30 mg/kg, IG treated for 7 days consecutively followed by ISO administration daily for 2 days consecutively by H and E/Masson staining based analysis", "type": "functional, organism-based", "details": "dose 10-30 mg/kg, time 9.0 day"}, "H9c2 [30]": {"tested_on": "H9c2", "experiment": "Cardioprotective activity against CoCl2-induced cellular hypoxia injury in rat H9c2 cells assessed as reduction in apoptosis at 5 to 10 uM incubated for 24 hrs by flow cytometry", "type": "functional, cell-based", "details": "dose 5-10 µM"}, "H9c2 [31]": {"tested_on": "H9c2", "experiment": "Cardioprotective activity against CoCl2-induced cellular hypoxia injury in rat H9c2 cells assessed as mitochondrial membrane potential at 10 uM incubated for 24 hrs by JC-1 staining based analysis (reference value: 48.08 %)", "type": "functional"}, "H9c2 [32]": {"tested_on": "H9c2", "experiment": "Cardioprotective activity against CoCl2-induced cellular hypoxia injury in rat H9c2 cells assessed as preservation of nuclear morphology at 5 to 10 uM incubated for 24 hrs by Hoechst 33258 nuclear staining based analysis", "type": "functional, cell-based", "details": "dose 5-10 µM"}}, "note": "Calls of active or inactive are those of the source. No cut-off for these calls is given here."}
{"molecule": "C=CCSSCCC(=O)O[C@H]1CC[C@]2(C)[C@H]3C[C@@H](O)[C@@H]4[C@@H]([C@]5(C)CC[C@@H](C(C)(C)O)O5)CC[C@@]4(C)[C@]3(C)CC[C@H]2C1(C)C", "values": [{"measurement": "Activity", "setting": "H9c2 [1]", "value": "Active"}, {"measurement": "Activity", "setting": "H9c2 [2]", "value": "Active"}, {"measurement": "Activity", "setting": "[3]", "value": "Non-toxic"}, {"measurement": "Activity", "setting": "H9c2 [4]", "value": "Active"}, {"measurement": "Activity", "setting": "Rattus norvegicus [5]", "value": "Active"}, {"measurement": "Activity", "setting": "H9c2 [6]", "value": 7.54, "unit": "%"}, {"measurement": "Activity", "setting": "H9c2 [7]", "value": "Active"}, {"measurement": "Activity", "setting": "Rattus norvegicus [8]", "value": "Dose-dependent-effect"}, {"measurement": "Activity", "setting": "H9c2 [9]", "value": "Dose-dependent-effect"}, {"measurement": "Activity", "setting": "[10]", "value": 30.7, "unit": "µM"}, {"measurement": "Activity", "setting": "H9c2 [11]", "value": "Dose-dependent-effect; Exhibited Highest Release Efficiency Among Tested Compounds"}, {"measurement": "Activity", "setting": "Rattus norvegicus [12]", "value": 13.24, "unit": "%"}, {"measurement": "viability at 5 µM", "setting": "H9c2 [13]", "value": 94.2, "unit": "%"}, {"measurement": "Activity", "setting": "H9c2 [14]", "value": "Active"}, {"measurement": "inhibition", "setting": "H9c2 [15]", "value": "Active"}, {"measurement": "Activity", "setting": "H9c2 [16]", "value": "Active"}, {"measurement": "Activity", "setting": "[17]", "value": "Active"}, {"measurement": "viability at 1.25 µM", "setting": "H9c2 [18]", "value": 85.7, "unit": "%"}, {"measurement": "viability at 0.625 µM", "setting": "H9c2 [19]", "value": 76.5, "unit": "%"}, {"measurement": "Activity", "setting": "[20]", "value": 18.6, "unit": "%"}, {"measurement": "Activity", "setting": "H9c2 [21]", "value": "Active"}, {"measurement": "Activity", "setting": "H9c2 [22]", "value": "Active"}, {"measurement": "viability at 2.5 µM", "setting": "H9c2 [23]", "value": 87.8, "unit": "%"}, {"measurement": "Activity", "setting": "H9c2 [24]", "value": 8.01, "unit": "%"}, {"measurement": "Activity", "setting": "H9c2 [25]", "value": "Active"}, {"measurement": "inhibition", "setting": "H9c2 [26]", "value": "Active"}, {"measurement": "Activity", "setting": "Rattus norvegicus [27]", "value": "Active"}, {"measurement": "Activity", "setting": "Rattus norvegicus [28]", "value": "Active"}, {"measurement": "Activity", "setting": "Rattus norvegicus [29]", "value": "Active"}, {"measurement": "Activity", "setting": "H9c2 [30]", "value": "Active"}, {"measurement": "Activity", "setting": "H9c2 [31]", "value": 92.84, "unit": "%"}, {"measurement": "Activity", "setting": "H9c2 [32]", "value": "Active"}]}
